Experimental data reported in PubChem BioAssay (NCI).
“And” between values parts separate entries of the source, which are not always exact repeats. Identical values can stand only once.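 Growth conditions: 96-well plates. Treatment: test compound, 48 hours, 5 concentrations. Analysis: linear interpolation between bracketing concentrations; unreached endpoints set to highest concentration. Abbreviation: GI50, concentration required for 50% inhibition of growth. At the TGI there is no net growth.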

Experiments:
Test in all cases: DTP human tumour cell line panel, 48 h
IGROV1 ovarian = system: IGROV1 ovarian
TK-10 renal = system: TK-10 renal
OVCAR-4 ovarian = system: OVCAR-4 ovarian
SF-268 CNS = system: SF-268 CNS
ACHN renal = system: ACHN renal
KM12 colon = system: KM12 colon
COLO 205 colon = system: COLO 205 colon
HL-60(TB) leukemia = system: HL-60(TB) leukemia
LOX IMVI melanoma = system: LOX IMVI melanoma
HOP-92 NSCLC = system: HOP-92 NSCLC

Row | Compound | TGI (IGROV1 ovarian) | TGI (TK-10 renal) | TGI (OVCAR-4 ovarian) | TGI (SF-268 CNS) | TGI (ACHN renal) | TGI (KM12 colon) | TGI (COLO 205 colon) | TGI (HL-60(TB) leukemia) | TGI (LOX IMVI melanoma) | TGI (HOP-92 NSCLC) | GI50 (IGROV1 ovarian) | GI50 (TK-10 renal) | GI50 (OVCAR-4 ovarian) | GI50 (SF-268 CNS) | GI50 (ACHN renal) | GI50 (KM12 colon) | GI50 (COLO 205 colon) | GI50 (HL-60(TB) leukemia) | GI50 (LOX IMVI melanoma) | GI50 (HOP-92 NSCLC)
1 | COC(=O)C1C(C(=O)OC)C2(OC)c3ccccc3-c3ccccc3C12 (stereo not drawn) | > 100 µM | > 100 µM | > 100 µM | > 100 µM | > 100 µM | > 100 µM | 31.3 µM | 25.3 µM | > 100 µM | > 100 µM |  |  |  |  |  |  |  |  |  | 
2 | O=S(=O)(N/N=C/c1ccc(/C=N/NS(=O)(=O)c2ccccc2)cc1)c1ccccc1 | > 100 µM | > 100 µM | > 100 µM | > 100 µM | > 100 µM | > 100 µM | 43.1 µM | 53.3 µM | 51 µM | 64.8 µM |  |  |  |  |  |  |  |  |  | 
3 | CCOC(=O)C(N)C[S][Sn]([CH3])([CH3])[Cl] (stereo not drawn) | > 100 µM | > 100 µM | > 100 µM | > 100 µM | > 100 µM | > 100 µM | > 100 µM | > 77.4 µM | > 100 µM | > 100 µM | > 100 µM | > 100 µM | > 100 µM | > 100 µM | > 100 µM | > 100 µM | > 100 µM | > 51.4 µM | 37 µM | > 100 µM
4 | CCCCOC(=O)NC(=O)c1cn(CCCOC(=O)CCCCCCCCC(=O)OCCCn2cc(C(=O)NC(=O)OCCCC)c(=O)[nH]c2=O)c(=O)[nH]c1=O | > 100 µM | > 100 µM | > 100 µM | > 100 µM | > 100 µM | > 100 µM | > 100 µM | > 100 µM | > 100 µM | > 100 µM |  |  |  |  |  |  |  |  |  | 
5 | CC(=O)CC(=O)Nc1ccc2ccccc2c1 | > 100 µM | > 100 µM | > 100 µM | > 100 µM | > 100 µM | > 100 µM | > 100 µM | > 100 µM | > 100 µM | > 100 µM |  |  |  |  |  |  |  |  |  | 
6 | NNC(=O)/C(=C/c1ccc(Cl)c(Cl)c1)NC(=O)c1ccccc1 | > 100 µM | > 100 µM | > 100 µM | > 100 µM | > 100 µM | > 100 µM | > 100 µM | > 100 µM | > 100 µM | > 100 µM |  |  |  |  |  |  |  |  |  | 
7 | O=[N+]([O-])c1cc(Cl)c(Cl)c([N+](=O)[O-])c1Cl | 3.02 µM | 2.99 µM | 3.06 µM | 3.39 µM | 3.6 µM | 2.97 µM | 2.91 µM | 2.92 µM | 1.11 µM | 3.76 µM | 1.42 µM | 1.53 µM | 1.69 µM | 1.77 µM | 1.76 µM | 1.44 µM | 1.55 µM | 0.439 µM | 0.299 µM | 1.92 µM
8 | O=C1c2ccccc2C(=O)N1CCCSc1ccccc1 | > 100 µM | > 100 µM | > 100 µM | > 100 µM | > 100 µM | > 100 µM | > 100 µM | > 100 µM | > 100 µM | > 100 µM |  |  |  |  |  |  |  |  |  | 
9 | CC(=O)N[C@H]1C=C[C@@H]2/C=C(C)/C=C/[C@@H](C)[C@H]([C@H](C)[C@H](O)[C@@H](C)NC(C)=O)OC(=O)/C=C/C=C(C)\C=C\[C@]2(C)C1 | 4.65 µM and > 45 µM | 44.6 µM | > 45 µM | 4.65 µM and > 45 µM | 4.65 µM and > 45 µM | 4.65 µM and > 45 µM | 4.65 µM and 5.38 µM | 4.65 µM and 20.6 µM | 0.016 µM and < 0.0045 µM |  | 0.0215 µM and 0.00532 µM | 0.00805 µM | 6.59 µM | 0.126 µM and 0.0322 µM | 0.0186 µM and 0.0045 µM | 0.0246 µM and 0.0045 µM | 0.0173 µM and 0.0045 µM |  | 0.00734 µM and < 0.0045 µM | 0.00954 µM and 0.0045 µM
10 | Cn1c([N+](=O)[O-])cnc1/C=C1\Oc2ccccc2C1=O | 5.87 µM | 7.77 µM | 7.45 µM | 1.66 µM | 0.632 µM | 2.46 µM | 3.02 µM | 1.5 µM | 0.506 µM | 3.37 µM | 0.6 µM | 1.29 µM | 2.05 µM | 0.303 µM | 0.197 µM | 0.412 µM | 0.543 µM | 0.28 µM | 0.176 µM | 0.762 µM
11 | ClCc1cccc(Cn2cnc3c(NC45CC6CC(CC(C6)C4)C5)ncnc32)c1 | 45.8 µM | 44.7 µM | 38.8 µM | 40.5 µM | 30.5 µM | 30.6 µM | > 69.4 µM | 26.6 µM | 31.7 µM | 34.5 µM | 18.3 µM | 20.5 µM | 15.5 µM | 12 µM | 15.4 µM | 14.6 µM | 20.5 µM | 1.24 µM | 15.7 µM | 17.3 µM
12 | CCCCc1c2c(nc3c1CCC/C3=C\c1ccccc1)C(=O)CCC2 | 42.5 µM | 72.4 µM | 67.9 µM | 44.3 µM | 95.2 µM | 51.8 µM | 48.6 µM | 74.3 µM | 34.1 µM | 58.7 µM |  |  |  |  |  |  |  |  |  | 
13 | COc1ccc([N+](=O)[O-])c2c(NCCCN(C)C)c3ccccc3nc12 | 0.234 µM | 2.43 µM | 0.206 µM | 3.44 µM | 0.389 µM | 0.509 µM | 0.26 µM | 3.8 µM | 5.11 µM | 0.4 µM |  |  |  |  |  |  |  |  |  | 
14 | Cc1nc2sc(C(=O)Nc3cccc(Cl)c3C)c(N)c2cc1C(=O)/C=C/c1ccccc1 | 1.1 µM | 4.54 µM | 7.03 µM | 5.15 µM | 1.09 µM | 1.5 µM | 2.39 µM | 2.13 µM | 0.711 µM | 2.11 µM | 0.316 µM | 1.06 µM | 1.23 µM | 0.938 µM | 0.327 µM | 0.479 µM | 0.979 µM | 0.575 µM | 0.188 µM | 0.371 µM
15 | COc1cc(Nc2nccc(Nc3ccc4c(C)[nH]nc4c3)n2)cc(OC)c1OC | 5.6 µM | 3.88 µM | > 20.7 µM | 7.89 µM | > 25 µM | 3.06 µM | 5.65 µM | 9.04 µM | 3.98 µM | 1.38 µM | 0.858 µM | 0.908 µM | 4.04 µM | 2.42 µM | 1.9 µM | 0.68 µM | 2.02 µM | 3.31 µM | 0.963 µM | 0.191 µM
16 | CCOC(=O)Nc1nc2ccc(Cn3cccc3)cc2[nH]1 | > 100 µM | > 100 µM | > 100 µM | > 100 µM | > 100 µM | > 100 µM | 17.7 µM | 13.4 µM | > 100 µM | > 100 µM |  |  |  |  |  |  |  |  |  | 
17 | c1ccc2c(c1)CCC/C2=N\OCC1CO1 (stereo not drawn) | > 100 µM | > 100 µM | > 100 µM | > 100 µM | > 100 µM | > 100 µM | > 100 µM | 92.1 µM | > 100 µM | > 100 µM |  |  |  |  |  |  |  |  |  | 
18 | O=[N+]([O-])c1cccc(/C=N\NS(=O)(=O)c2ccc(Cl)cc2)c1O | > 100 µM | > 100 µM | > 100 µM | > 100 µM | > 100 µM | > 100 µM | > 100 µM | > 100 µM | > 100 µM | > 100 µM |  |  |  |  |  |  |  |  |  | 
19 | COc1ccc(CN(C)c2ccc(CO)c(Cl)c2)cc1 | 3.3 µM | 0.793 µM | > 45.9 µM | > 100 µM | > 100 µM | > 92.8 µM | 17.5 µM | 64.8 µM | > 100 µM | 45.3 µM | 0.405 µM | 0.179 µM | 1.93 µM | 33.4 µM | 32.6 µM | 24.6 µM | 3.55 µM | 17.7 µM | 27.9 µM | 4.7 µM
20 | COC(=O)c1s/c(=N\C(=S)N(C)C)n(-c2ccccc2)c1C(=O)OC | > 100 µM | > 100 µM | > 100 µM | > 100 µM | > 100 µM | > 100 µM | > 100 µM | > 100 µM | > 100 µM | > 100 µM |  |  |  |  |  |  |  |  |  | 
21 | O=C(Nc1cc(Cl)c(Cl)cc1Cl)C(=O)C1C=CCS1(=O)=O (stereo not drawn) | > 100 µM | > 100 µM | > 100 µM | > 100 µM | > 100 µM | > 100 µM | > 100 µM | > 100 µM | > 100 µM | > 100 µM |  |  |  |  |  |  |  |  |  | 
22 | CC(=O)OCC1OC(N2C(=O)C(=O)c3cc(C)ccc32)C(OC(C)=O)C(OC(C)=O)C1OC(C)=O (stereo not drawn) | > 100 µM | > 100 µM | > 100 µM | > 100 µM | > 100 µM | > 100 µM | > 100 µM | 59.5 µM | 34.3 µM | > 100 µM |  |  |  |  |  |  |  |  |  | 
23 | Cc1[nH]c2ccccc2c1C1Cc2ccccc2N1C(=O)/C=C\C(=O)O (stereo not drawn) | > 100 µM | > 100 µM | > 100 µM | 68.4 µM | > 100 µM | > 100 µM | > 100 µM | 68.2 µM | 37.6 µM | 76.6 µM |  |  |  |  |  |  |  |  |  | 
24 | COc1ccc(NC(=O)C(=O)C(C(=O)c2ccccc2)C2OC(=O)c3ccccc32)c([N+](=O)[O-])c1 (stereo not drawn) | > 100 µM | > 100 µM | > 100 µM | > 100 µM | > 100 µM | > 100 µM | > 100 µM | > 100 µM | > 100 µM | > 100 µM |  |  |  |  |  |  |  |  |  | 
